Results taken from the supplement of paper PMC10307832.

Tests used:
Test in all cases: relative viability (nuclei count vs DMSO), 5 days (fraction); higher = more cells survive
XMD8-85 + Luminespib = compound: CN1CCN(CC1)C2=CC(=C(C=C2)NC3=NC=C4C(=N3)N(C5=CC=CC=C5C(=O)N4C)C)OC [XMD8-85] + CCNC(=O)c1noc(-c2cc(C(C)C)c(O)cc2O)c1-c1ccc(CN2CCOCC2)cc1 [Luminespib] (partner 0.01 µM)
In short: (§1)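 Dosing by pin tool came one day after lung cancer cell lines were seeded in 1536-well plates, using either one drug or a fixed anchor-drug dose plus five library-drug doses (not always all listed) in √10 steps. After 5 days, nuclei were counted on 4× images. Relative viability is treated-well nuclei count divided by vehicle-well nuclei count, and values are medians of duplicate plates.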

XMD8-85 + Pemetrexed = compound: CN1CCN(CC1)C2=CC(=C(C=C2)NC3=NC=C4C(=N3)N(C5=CC=CC=C5C(=O)N4C)C)OC [XMD8-85] + Nc1nc2[nH]cc(CCc3ccc(C(=O)N[C@@H](CCC(=O)O)C(=O)O)cc3)c2c(=O)[nH]1 [Pemetrexed] (partner 0.2 µM)
In short: as §1

4EGI-1 + OSI-027 = compound: O=C(O)C(Cc1ccccc1[N+](=O)[O-])=NNc1nc(-c2ccc(Cl)c(Cl)c2)cs1 (mixture of isomers) [4EGI-1] + COc1cccc2cc(-c3nc([C@H]4CC[C@H](C(=O)O)CC4)n4ncnc(N)c34)[nH]c12 [OSI-027] (partner 0.5 µM)
In short: as §1

XMD8-85 + Crizotinib = compound: CN1CCN(CC1)C2=CC(=C(C=C2)NC3=NC=C4C(=N3)N(C5=CC=CC=C5C(=O)N4C)C)OC [XMD8-85] + C[C@@H](Oc1cc(-c2cnn(C3CCNCC3)c2)cnc1N)c1c(Cl)ccc(F)c1Cl [Crizotinib] (partner 1 µM)
In short: as §1

Cell Line	relative viability (XMD8-85 + Luminespib; first compound 0.08 µM)	relative viability (XMD8-85 + Luminespib; first compound 0.253 µM)	relative viability (XMD8-85 + Luminespib; first compound 0.8 µM)	relative viability (XMD8-85 + Luminespib; first compound 2.53 µM)	relative viability (XMD8-85 + Luminespib; first compound 8 µM)	relative viability (XMD8-85 + Pemetrexed; first compound 0.08 µM)	relative viability (XMD8-85 + Pemetrexed; first compound 0.253 µM)	relative viability (XMD8-85 + Pemetrexed; first compound 0.8 µM)	relative viability (XMD8-85 + Pemetrexed; first compound 8 µM)	relative viability (4EGI-1 + OSI-027; first compound 0.5 µM)	relative viability (4EGI-1 + OSI-027; first compound 1.581 µM)	relative viability (4EGI-1 + OSI-027; first compound 5 µM)	relative viability (4EGI-1 + OSI-027; first compound 15.81 µM)	relative viability (4EGI-1 + OSI-027; first compound 50 µM)	relative viability (XMD8-85 + Crizotinib; first compound 0.08 µM)	relative viability (XMD8-85 + Crizotinib; first compound 0.253 µM)	relative viability (XMD8-85 + Crizotinib; first compound 0.8 µM)	relative viability (XMD8-85 + Crizotinib; first compound 2.53 µM)	relative viability (XMD8-85 + Crizotinib; first compound 8 µM)	relative viability (XMD8-85 + Pemetrexed; first compound 2.53 µM)
EKVX	0.911	0.905	0.588	0.877	0.876	0.276	0.347	0.382	0.381	0.736	0.594	0.738	0.567	0.696	0.892	0.985	1.12	1	0.886	
H3255	1.03	0.829	0.816	0.889	0.707	0.558		0.525	0.375	0.655	0.564	0.611	0.448	0.578	0.808	0.853	0.822	0.902	0.52	0.599
NCI-H647	0.151	0.208	0.169	0.126	0.132	0.172	0.16	0.18	0.116	0.7		0.739	0.671	0.399	1.12	1.1	1.05	1.14	0.213	0.151
COR-L23	0.504	0.589	0.963		0.487	0.187	0.2	0.199	0.18	0.899	0.459	0.848	0.542	0.138	0.739	0.561	0.723	0.631	0.299	0.187
NCI-H1915	0.807	0.764	0.49	0.47	0.448	0.434	0.523	0.484	0.457	0.623	0.448	0.625	0.617	0.287	1.06	0.909	0.943	0.998	0.882	0.5
NCI-H2126	0.948	1	0.917	1.05	0.891	0.705	0.758	0.693	0.623	0.721	0.697	0.778	0.572	0.511	1.02	0.974	1.02	1.06	1	0.707
NCI-H2087	0.182	0.167	0.159	0.118	0.175	0.654	0.697	0.692	0.659	0.693	0.523	0.656	0.438	0.203	0.821	0.857	0.994	0.994	0.674	0.731
LC-2-ad	1.26	0.996	1.22	0.874	0.706	0.261	0.26	0.253	0.249	0.873		0.894	0.386	0.234	0.442	0.446	0.462	0.444	0.303	0.274
